Experimental data taken from ChEMBL document CHEMBL1141305, “Daphnipaxianines A-D, alkaloids from Daphniphyllum paxianum” (J Nat Prod, 2007).
The source made the active and inactive calls.

What was measured:
Type in all cases: functional, cell-based
MEF = assay: Cytotoxicity against mouse Bax and Bak deficient MEF cells
HCT-116 [1] = assay: Cytotoxicity against human HCT116 cells
HCT-116 [2] = assay: Cytotoxicity against human Bax deficient HCT116 cells

Measured: Activity

C[C@@H]1CN2C[C@H]3CCC4=C5[C@](O)(CC4)CC[C@@]54C(=O)[C@@H]1C[C@@H]2[C@@]34C
inactive: MEF | HCT-116 [1] | HCT-116 [2]

C[C@@H]1CN2C[C@H]3CC[C@]4(O)CC(=O)C5=C4[C@@]4(CC5)C(=O)[C@@H]1C[C@@H]2[C@@]34C
inactive: MEF | HCT-116 [1] | HCT-116 [2]

C[C@@H]1CN2C[C@H]3CC[C@@]4(O)CC(=O)C5=C4[C@@]4(CC5)C(=O)[C@@H]1C[C@@H]2[C@@]34C
inactive: MEF | HCT-116 [1] | HCT-116 [2]

COC(=O)[C@@H]1C[C@]23CN4CC(CCC5(CCC1C52)C4)[C@@]31CC[C@](OC)(C(C)C)OC1 (some centres not stated)
inactive: MEF | HCT-116 [1] | HCT-116 [2]
